Measurements: article PMC12040169 (PLOS Biology, 2025)

Assay: in vitro
Conditions: human, hela cells, % viability

Structure (SMILES) | viability at 28.5 h, 10 µM [%]
CC1CCc2nc(NS(=O)(=O)c3ccccc3)sc2C1 (stereo not drawn) [CBK026915] | 110
Cc1c(C(=O)Nc2ccc(OCc3ccccc3F)cc2)sc2nc[nH]c(=O)c12 [CBK285834] | 98.5
C[C@H](Nc1nc(-c2ccc(-c3ccccc3)cc2)cnc1N)c1ccccc1 [CBK063760] | 93.5
O=C(c1ccc[nH]1)N1Cc2ccccc2C1 [CBK200319] | 89.4
CC1Cc2ccccc2N1C(=O)Cn1c(=O)n(C)c2ncccc21 (stereo not drawn) [CBK283793] | 90.7
COCCN1C(=O)C2(CC(=O)N(CCN3CCCC3=O)C2=O)c2cc(OC)ccc21 (stereo not drawn) [CBK075189] | 92.4
CN(C)S(=O)(=O)c1ccc2c(c1)nc1n2CCC1 [CBK115558] | 71.4
CCN(CC(=O)NC(C)C)Cc1csc(-c2ccc(F)cc2)n1 [CBK305849] | 117
O/N=C1\CSCc2ncccc21 [CBK007234] | 90.1
CCn1c(=O)n(CC(=O)N(C(C)C)C(C)C)c2cccnc21 [CBK283943] | 100
CCN(CC1CCOCC1)C(=O)Cn1c(C)cc(=O)c2ccccc21 [CBK307230] | 88.7
COc1cccc(/C=N\NC(=O)CN2CCN(Cc3ccccc3)CC2)c1O [CBK263106] | 97.1
CCNC(=O)c1ccc(-c2ccc(C(=O)N(C)C)cc2)nc1 [CBK158361] | 91.7
CCOc1ccc(C(CC(=O)O)C(=O)O)cc1 (stereo not drawn) [CBK261363] | 96.7
Cc1c(S(=O)(=O)N2CCN(C)CC2)sc2ccc(C(C)C)cc12 [CBK170362] | 90.1
COCCN(CCOC)C(=O)COc1c(Cl)cc(C(=O)O)cc1Cl [CBK296704] | 92.3
CCN1CCC2CN(CCCC(c3ccc(F)cc3)c3ccc(F)cc3)CCN2C1=O (stereo not drawn) [CBK024996] | 92.7
N#CCCCN1CCC(Oc2nccnc2OCc2ccc(-c3ccccc3)cc2)CC1 [CBK161566] | 95.4
COc1cc(C=CC(=O)O)cc(S(=O)(=O)Nc2ccccc2C(=O)NCCc2ccccc2)c1OC [CBK297487] | 99.5
CN(Cc1cn(-c2ccccc2)nc1-c1ccccc1)C(=O)CCc1n[nH]c(=S)[nH]c1=O [CBK295630] | 102
Cc1cc(CSc2ccccc2)ccc1NC(=O)/C=C/c1cccc([N+](=O)[O-])c1 [CBK264687] | 111
CN(C)S(=O)(=O)c1ccc(Cl)c(C(=O)Nc2cccc(C(=O)O)c2)c1 [CBK265727] | 90.9

Structure (SMILES) | viability at 28.5 h, 10 µM [%]
Nc1c(C(=O)c2ccc3c(c2)OCO3)sc2nc(-c3cccnc3)ccc12 [CBK270186] | 86.3
NC(=O)CN1CC2(CCN(CCS(=O)(=O)c3ccccc3)CC2)c2ccccc21 [CBK126786] | 103
CCOC(=O)c1cccc(-c2ccc(OC(F)(F)F)cc2)n1 [CBK149251] | 96.6
O=C(O)c1c[nH]nc1-c1ccc(Br)cc1 [CBK266368] | 91.5
O=C(N/N=C/c1ccc(O)cc1)C(=O)N/N=C/c1ccc(O)cc1 [CBK261625] | 88.7
COc1ccc(CN2CCN(C(=O)c3ccc(C#N)cc3)CC2)cc1 [CBK305698] | 99.6
O=C(NCCN1CCOCC1)C1CCN(c2nc3c(-c4ccccc4F)csc3c(=O)[nH]2)CC1 [CBK215442] | 104
O=C(O)c1cc(NC/C=C/c2ccccc2)ccc1N1CCOCC1 [CBK269806] | 106
COc1ccc(-c2ccc(-c3cc(C(=O)O)c4ccccc4n3)o2)cc1 [CBK300542] | 75.5
O=C(CCCN1C(=O)c2cccc3cccc(c23)C1=O)NO [CBK261092] | 92
O=C(c1ccc2[nH]ccc2c1)N1CCN(c2ncccn2)CC1 [CBK144500] | 87
CCNC(=O)N(C)c1c(CC)nc2c(OCc3ccc(S(C)(=O)=O)cc3)cccn12 [CBK147797] | 93.4
Cc1cc(C[C@@H]2COC[C@H]2NCCc2ccccc2)on1 [CBK284882] | 95.5
Cc1ccc(N(CC(O)CNC23CC4CC(CC(C4)C2)C3)S(=O)(=O)c2ccccc2)cc1 (stereo not drawn) [CBK264741] | 110
COc1ccc(S(=O)(=O)N2Cc3ccccc3CC2C(=O)Nc2ccc(O)cc2)cc1OC (stereo not drawn) [CBK293967] | 90.9
Cn1nccc1-c1cc(C(=O)NC2(C)CCC2)c2ccccc2n1 [CBK281605] | 92.7
CC(C)(C)OC(=O)NCc1ccc(-c2cc(Nc3cccc(Cl)c3)ncn2)cc1 [CBK037842] | 92.8
CCCn1c(N)c(C(=O)CSc2ncnc3sc4c(c23)CCCC4)c(=O)[nH]c1=O [CBK297556] | 77.8
O=C(C1CCCC1)N1CCC(n2c(=O)oc3ccc(Cl)cc32)CC1 [CBK284344] | 96.7
COC(=O)[C@@H]1CN(C(=O)Nc2ccccc2)CCN1C(=O)C1CCCCC1 [CBK289607] | 91
CC(=O)N[C@H](Cc1c[nH]c2ccccc12)C(=O)N1CCN(c2ccc(C(F)(F)F)cc2)CC1 [CBK091314] | 94.5
Cc1c(C(=O)O[C@H]2C[C@@H](c3ccc(F)cc3)N(C)C2=O)cnn1C [CBK283616] | 103

Structure (SMILES) | viability at 28.5 h, 10 µM [%]
CC(C)(C)c1ccc(OCC(O)Cn2c(CO)nc3ccccc32)cc1 (stereo not drawn) [CBK293973] | 81.7
CC(C)c1nc(C2CCCN(c3ncc(C#N)cc3Cl)C2)no1 (stereo not drawn) [CBK304128] | 111
COc1cnc(-c2cnn(C)c2)c(NC(=O)C2CC2)n1 [CBK145328] | 104
CC(C)c1csc(NC(=O)C2CN(S(=O)(=O)c3ccc(F)cc3)C2)n1 [CBK285944] | 120
CN1C2CCCC1CC(OC(=O)c1cccc3nc[nH]c13)C2 (stereo not drawn) [CBK090162] | 99.3
Nc1nonc1-c1noc(-c2cccc(Cl)c2)n1 [CBK026691] | 90.2
Cc1n[nH]c(C)c1CC(=O)NC(Cc1ccsc1)c1ccccn1 (stereo not drawn) [CBK285271] | 105
CCN(Cc1ccc(OC)c(OC)c1)C(=O)CSc1nc(CC(=O)O)cs1 [CBK296643] | 97.5
Cc1ccc(N2CCCN(C(=O)CCc3ccsc3)CC2)nn1 [CBK304573] | 91.1
O=C(O)CCC(=O)NCC1OCCc2ccccc21 (stereo not drawn) [CBK265865] | 89
Cc1cc2nc(NS(C)(=O)=O)n(S(C)(=O)=O)c2cc1C [CBK023112] | 106
COc1ccc(C2CCN(CC(=O)NC3CCCC3)CC2)cc1 [CBK283565] | 98
Cc1ccc(C(=O)COC(=O)c2cccc(C)c2O)cc1[N+](=O)[O-] [CBK264081] | 90.5
Cc1nc(-c2ccccc2)sc1CNC(=O)/C=C/c1c[nH]cn1 [CBK092368] | 83.3
O=C(c1cc(-c2ccccc2)n[nH]c1=O)N1CCc2ccccc2C1 [CBK291216] | 91.2
Cc1c(C)n(Cc2ccco2)c2ncnc(N3CCC(C(=O)O)CC3)c12 [CBK307599] | 99.1
CC(C)Nc1nccnc1OCCc1c[nH]c2ccccc12 [CBK115647] | 79.7
CCOC(=O)c1c(NC(=O)CCN2C(=O)c3cccc4cccc(c34)C2=O)sc2c1CCC2 [CBK262982] | 111
COc1ccc(C(=O)Nc2nc3c(C)c(C)ccc3s2)cc1 [CBK291210] | 107
COc1ccc([C@@]23CCC(NC(=O)Nc4cc(C(F)(F)F)ccc4F)C[C@@H]2N(C)CC3)cc1OC (stereo partly drawn) [CBK047552T] | 87.2
CN1CCCN(Cc2cccc3ccccc23)CC1 [CBK261531] | 96.4
O=C1C[C@H]2[C@H](CC3(SCCS3)[C@@H]2CO)O1 [CBK006615] | 90.2

Structure (SMILES) | viability at 28.5 h, 10 µM [%]
CN1CCC(N2CCN(C(=O)NCC(c3ccccc3)c3ccccc3)CC2)CC1 [CBK156096] | 92.5
CCn1c(CNC(=O)c2cn3cc(C)ccc3n2)nc2ccccc21 [CBK281395] | 89.4
CN1CCN(C(=O)CC[C@@H]2CNC(=O)[C@@H]3C[C@H](NC(=O)c4cccc(F)c4)CN23)CC1 [CBK289015] | 92.2
Cc1cccc(OCCn2c(SCCC(=O)O)nc3ccccc32)c1 [CBK264682] | 93.5
CN1CCN(c2ccc(-c3ccc(Cl)cc3)cn2)CC1 [CBK036945] | 95.2
COCCCn1c(=O)[nH]c2ncc(-c3cccc(CO)c3)nc21 [CBK065104] | 99.4
CNc1nc(C)c(C(=O)N2CCCC(COc3ccc(F)cc3)C2)s1 (stereo not drawn) [CBK307234] | 103
CC1(c2ccccc2)CC(=O)N(CCC(=O)O)C1=O (stereo not drawn) [CBK287091] | 83.3
CN1C(=O)c2cccc3c(S(=O)(=O)Nc4ccc(C(=O)O)c(O)c4)ccc1c23 [CBK299799] | 109
CSc1nc(NC(=O)c2ccoc2)cc(N2CCNCC2)n1 [CBK050314T] | 88.9
COc1ccc([C@@]23CC[C@@H](NC(=O)Nc4c(F)ccc(F)c4Cl)C[C@@H]2N(C)CC3)cc1OC [CBK073769T] | 93
CCCCNC(=O)Nc1ncc(-c2ccc(C#N)cc2)nc1-c1ccc(C(=O)N2CCOCC2)cc1 [CBK105766] | 91.1
CC(=O)Nc1ccc(-c2ccc(C(=O)N3CCN(C(=O)N4CCCC4)CC3)cn2)cc1 [CBK160187] | 94.5
COc1cccc(OC)c1-c1cn2ccnc2c(NCc2ccccn2)n1 [CBK037439] | 93.7
COC(=O)C1CC2CCC1(C)CC21NC(=O)c2ccccc2N1 (stereo not drawn) [CBK284440] | 100
COc1ccccc1-c1nccnc1N(C)Cc1ccccc1 [CBK036774] | 102
OCC(CO)(CO)NCc1ccc(-c2ccccc2)cc1 [CBK268742C] | 93.2
Cc1cccc(/C=C2/SC(=S)N(CC(=O)O)C2=O)n1 [CBK265146] | 82.9
COc1ccc(CN2CCCN(C(=O)c3ccnc(Cl)c3)CC2)cc1 [CBK305364] | 85.4
O=C(CC1CCN(Cc2ccccn2)CC1)Nc1ccc(OC2CCCC2)cc1 [CBK285960] | 104
Cc1c(Cl)cccc1S(=O)(=O)Nc1c(C(=O)N2CCOCC2)[nH]c2ccccc12 [CBK050076] | 109
